In experiment [1] the target is T1, AAK1 (Homo sapiens, UniProt Q2M2I8).
T1 construct: NP_055726.2
Put plainly: P81 filter plate assay. To be noted: full-length human AAK1, Mu2 substrate, 33P-ATP. The class given is biochemical. The procedure, abridged:
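Full-length human AAK1 (0.2 nM, 2×) was pre-incubated 10 min at RT with compounds (top concentration 96 μM in the dilution plate), then reacted 1 h at RT with full-length human Mu2 (0.2 μM, 2×), cold ATP (2 μM, 2×) and ³³P-ATP. Reactions were stopped with phosphoric acid and captured on P81 filters for scintillation counting.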

The target of experiment [2] is T1, AAK1. Put plainly: HEK281 cell-based assay (CBA). To be noted: HEK293F cells transfected with full length human AAK1 and AP2M1; phospho-mu2 Western blot; 3 hours incubation. How it is done: HEK293F cells were cultured in media containing DMEM (Gibco, cat. #11965), 10% FBS (SAFC Biosciences, cat. #12103C), 1× GPS (glutamine, penicillin and streptomycin). On day one, cells were plated on a 10 cm dish so that they are ˜80% confluent at time of transfection. Roughly 12 million cells were in a 10 cm dish at time of transfection. On day two, each dish was transfected with 48 ug DNA and 144 ul Lipofectamine 2000 (Invitrogen, cat. #11668-019). The DNA was comprised of a mixture (per 10 cm dish) containing 3 ug AAK1/HA/pIRES (full length human, NCBI accession no. NP_055726.2), 45 μg Flag/AP2MI/pcDNA (full length human), and 1.5 ml OPTI-MEM. The Lipofectamine 2000 is made up of a mixture (per 10 cm dish) containing 144 μl Lipofectamine 2000 and 1.5 ml OPTI-MEM. Each mixture was transferred to individual 15 ml tubes and incubated at RT for 5 minutes, and then the two mixes were combined and incubated at RT for 20 minutes.
Growth media was then aspirated from each 10 cm plate and replaced with 10 ml of DMEM+10% FBS (no GPS). Finally, 3 ml DNA/Lipofectamine mix was added to each 10 cm dish and mix gently followed by incubate of plate overnight at 37° C. and 5% CO2.
On day three, compounds were diluted in 100% DMSO at 1000× final concentration, followed by 3-fold serial dilutions for a total of 5 concentrations tested. Four compounds were tested per 10 cm dish. One ul of each compound dilution was then pipetted into a deep-well, 96-well plate, followed by addition of 500 μl DMEM+0.5% FBS into each well for a 2× final concentration of each compound. Cells were resuspended in a 10 cm dish by simple pipetting (HEK293 cells come off the plate that easy at this point) and then transferred to a 50 ml conical tube and pelleted by centrifugation at 1000 rpm for 5 min. Cell pellets were then resuspended in 2.75 ml DMEM+0.5% FBS per 10 cm dish and 100 μl of cell suspension transferred into each well of 96-well TC plate. Finally, 100 μl of 2× compound diluted in DMEM+0.5% FBS was then added into wells containing cell suspension for a 1× final concentration. Plates were then incubated at 37° C. and 5% CO2 for 3 hours followed by transferring of cell suspensions from each well into 12-tube PCR strips. The PCR strips were spun in a tip rack at 1000 rpm for 5 minutes to pellet cells and media was then removed by pipetting without disturbing the cell pellet.
To prepare for Western Blot analysis, cell pellets were resuspend in 40 ul 1× LDS-PAGE sample buffer (Invitrogen, cat.# NP0008)+2× Halt phophatase and protease inhibitor cocktail (Thermo Scientific, cat. #1861284), followed by sonicating each with microtip sonicator set at 5 for 8-10 seconds. Five ul of 10× NuPage Sample Reducing Agent (with 50 mM DTT) was to each sample followed by heat denaturing at 70 C for 10 min on PCR machine. A total of 10 μl per sample was loaded into each lane of a 4-20% Tris-Glycine Criterion 26-well gel (Biorad, cat. #345-0034) for the phospho-mu2 blot and 10 μl per lane in a 4-12% Bis-Tris (+MES buffer) NuPAGE 26-well gel (Invitrogen, cat.# WG1403BX10) for the mu2 blot. For controls, 2 ng of phospho-mu2 or 20 ng mu2/Flag proteins were loaded in the last well of each gel. After SDS-PAGE, samples on each gel were transferred to PVDF membrane using an iBlot and membranes were blocked for one hour in TBST+5% milk, followed by wash 3× for 5-10 min with TBST. Criterion gels were probed with rabbit anti-phospho-mu2 (1:5000; a rabbit polyclonal antibody produced by New England Peptide and affinity purified at Lexicon) in TBST+5% BSA, whereas, NuPAGE gels were probed with mouse anti-Flag (1:500; Sigma, cat.# F1804) in TBST+5% milk, and these primary antibodies were incubated overnight at 4° C. on a rocker.

This is an account of results in patent publication US9403832B2, “Pyrazolo[1,5-a]pyrimidine-based compounds, compositions comprising them, and methods of their use” (Lexicon Pharmaceuticals, Inc., priority 2012, dated 2016).

Structures are written as SMILES.

T1 sequence (Q2M2I8 1-863 isoform Q2M2I8-2): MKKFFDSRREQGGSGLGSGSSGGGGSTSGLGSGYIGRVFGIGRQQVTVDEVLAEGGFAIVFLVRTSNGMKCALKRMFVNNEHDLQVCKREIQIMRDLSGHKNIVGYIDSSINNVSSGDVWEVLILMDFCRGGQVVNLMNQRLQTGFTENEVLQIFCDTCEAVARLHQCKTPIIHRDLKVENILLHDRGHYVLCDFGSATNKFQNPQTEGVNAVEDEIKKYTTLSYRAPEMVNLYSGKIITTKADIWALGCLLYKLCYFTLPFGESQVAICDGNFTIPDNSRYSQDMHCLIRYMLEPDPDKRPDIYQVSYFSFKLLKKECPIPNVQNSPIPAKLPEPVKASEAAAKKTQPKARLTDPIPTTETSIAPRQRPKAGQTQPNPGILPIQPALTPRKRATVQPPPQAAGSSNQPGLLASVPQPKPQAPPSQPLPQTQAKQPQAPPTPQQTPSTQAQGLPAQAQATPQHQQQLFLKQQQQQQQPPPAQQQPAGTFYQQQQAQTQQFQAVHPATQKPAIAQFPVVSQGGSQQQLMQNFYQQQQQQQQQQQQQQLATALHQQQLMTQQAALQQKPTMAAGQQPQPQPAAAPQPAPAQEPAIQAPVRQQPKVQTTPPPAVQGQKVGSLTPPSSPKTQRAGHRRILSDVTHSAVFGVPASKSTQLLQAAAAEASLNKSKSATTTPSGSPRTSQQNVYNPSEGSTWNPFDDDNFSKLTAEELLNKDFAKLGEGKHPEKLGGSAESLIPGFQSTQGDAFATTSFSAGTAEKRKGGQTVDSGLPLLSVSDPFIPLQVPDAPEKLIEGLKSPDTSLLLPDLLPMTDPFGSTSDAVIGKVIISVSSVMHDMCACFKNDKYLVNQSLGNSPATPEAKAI

Consider `COc1ncccc1-c1cnn2ccc(N3CCN(C(=O)C4(N)CCCC4)CC3)nc12` [(1-aminocyclopentyl)(4-(3-(2-methoxypyridin-3-yl)pyrazolo[1,5-a]pyrimidin-5-yl)piperazin-1-yl)methanone], for which the IC50 on AAK1 [1] and against AAK1 [2] was at most 10 nM throughout.

`COC[C@H](N)C(=O)N1CCN(c2ccn3ncc(-c4cccnc4OC)c3n2)CC1` [(S)-2-amino-3-methoxy-1-(4-(3-(2-methoxypyridin-3-yl)pyrazolo[1,5-a]pyrimidin-5-yl)piperazin-1-yl)propan-1-one]: the IC50 against AAK1 [1] and on AAK1 [2] was at most 10 nM each time.

On to `COc1ncccc1-c1cnn2ccc(N(C)C[C@@H]3CCCN3C(=O)OC(C)C)nc12` [(S)-isopropyl 2-(((3-(2-methoxypyridin-3-yl)pyrazolo[1,5-a]pyrimidin-5-yl)(methyl)amino)methyl)pyrrolidine-1-carboxylate], for which the IC50 on AAK1 [1] and against AAK1 [2] was at most 10 nM throughout.

For the compound `COc1ccc(F)cc1-c1cnn2ccc(N3CCN(C(=O)[C@@H](N)C(C)(C)C)CC3)nc12` [(S)-2-amino-1-(4-(3-(5-fluoro-2-methoxyphenyl)pyrazolo[1,5-a]pyrimidin-5-yl)piperazin-1-yl)-3,3-dimethylbutan-1-one], the IC50 against AAK1 [1] and on AAK1 [2] was at most 10 nM throughout.

As to `COc1cc(C)c(F)cc1-c1cnn2ccc(N3CCN(C(=O)OC(C)C)CC3)nc12` [isopropyl 4-(3-(5-fluoro-2-methoxy-4-methylphenyl)pyrazolo[1,5-a]pyrimidin-5-yl)piperazine-1-carboxylate], the IC50 at AAK1 [1] and at AAK1 [2] was at most 10 nM throughout.

On to `COCC(C)(C)OC(=O)N1CCN(c2ccn3ncc(-c4cccnc4OC)c3n2)CC1` [1-methoxy-2-methylpropan-2-yl 4-(3-(2-methoxypyridin-3-yl)pyrazolo[1,5-a]pyrimidin-5-yl)piperazine-1-carboxylate], for which the figures for the concentration for half-maximal inhibition (IC50) on AAK1 [1] and on AAK1 [2] were at most 10 nM and at most 1000 nM, respectively.

Regarding `[2H]C([2H])([2H])Oc1ncccc1-c1cnn2ccc(N3CCN(C(=O)OCC)CC3)nc12` [ethyl 4-(3-(2-d3-methoxypyridin-3-yl)pyrazolo[1,5-a]pyrimidin-5-yl)piperazine-1-carboxylate], the half-maximal inhibitory concentration (IC50) is at most 10 nM on AAK1 [1] and at most 100 nM against AAK1 [2].

As for `CC(C)(C)OC(=O)N1CCC[C@H]1CNc1ccn2ncc(-c3ccc(CN)cc3)c2n1` [(S)-tert-butyl 2-(((3-(4-(aminomethyl)phenyl)pyrazolo[1,5-a]pyrimidin-5-yl)amino)methyl)pyrrolidine-1-carboxylate], the IC50 against AAK1 [1] and against AAK1 [2] was at most 10 nM in each case.

For the compound `COCCOC(=O)N1CCN(c2ccn3ncc(-c4cc(F)cnc4OC)c3n2)CC1` [2-methoxyethyl 4-(3-(5-fluoro-2-methoxypyridin-3-yl)pyrazolo[1,5-a]pyrimidin-5-yl)piperazine-1-carboxylate], the values for the IC50 against AAK1 [1] and at AAK1 [2] were at most 10 nM and at most 100 nM, respectively.

Turning to `COC[C@@H](C)OC(=O)N1CCN(c2ccn3ncc(-c4cccnc4OC)c3n2)CC1` [(R)-1-methoxypropan-2-yl 4-(3-(2-methoxypyridin-3-yl)pyrazolo[1,5-a]pyrimidin-5-yl)piperazine-1-carboxylate], the figures for the IC50 on AAK1 [1] and against AAK1 [2] were at most 10 nM and at most 1000 nM, respectively.

On to `CC(C)C[C@H](N)C(=O)N1CCN(c2ccn3ncc(-c4ccccc4)c3n2)CC1` [(S)-2-amino-4-methyl-1-(4-(3-phenylpyrazolo[1,5-a]pyrimidin-5-yl)piperazin-1-yl)pentan-1-one], for which the IC50 against AAK1 [1] and on AAK1 [2] was at most 10 nM in each case.

Regarding `CC(C)OC(=O)N1CCN(c2ccn3ncc(-c4ccc(OCCN)cc4)c3n2)CC1` [isopropyl 4-(3-(4-(2-aminoethoxy)phenyl)pyrazolo[1,5-a]pyrimidin-5-yl)piperazine-1-carboxylate], the IC50 was at most 10 nM at AAK1 [1] and at most 100 nM at AAK1 [2].

With `CC(C)[C@H](N)C(=O)N1CCN(c2ccn3ncc(-c4ccccc4F)c3n2)CC1` [(S)-2-amino-1-(4-(3-(2-fluorophenyl)pyrazolo[1,5-a]pyrimidin-5-yl)piperazin-1-yl)-3-methylbutan-1-one], the IC50 against AAK1 [1] and at AAK1 [2] was at most 10 nM throughout.

For the compound `COc1ncccc1-c1cnn2ccc(NCCCOC(C)(C)C)nc12` [N-(3-(tert-butoxy)propyl)-3-(2-methoxypyridin-3-yl)pyrazolo[1,5-a]pyrimidin-5-amine], the half-inhibitory concentration (IC50) is at most 10 nM at AAK1 [1] and at most 100 nM against AAK1 [2].

Regarding `CC(C)[C@H](N)C(=O)N1CCN(c2ccn3ncc(-c4ccc(F)cc4)c3n2)CC1` [(S)-2-amino-1-(4-(3-(4-fluorophenyl)pyrazolo[1,5-a]pyrimidin-5-yl)piperazin-1-yl)-3-methylbutan-1-one], the IC50 on AAK1 [1] and against AAK1 [2] was at most 10 nM in each case.

With `COc1ncccc1-c1cnn2ccc(NC[C@@H]3CCCN3C(=O)OC(C)C)nc12` [(S)-isopropyl 2-(((3-(2-methoxypyridin-3-yl)pyrazolo[1,5-a]pyrimidin-5-yl)amino)methyl)pyrrolidine-1-carboxylate], the IC50 against AAK1 [1] and against AAK1 [2] was at most 10 nM in each case.

For the compound `COc1ccccc1-c1cnn2ccc(N3CCN(C(=O)[C@@H](N)C(C)C)CC3)nc12` [(S)-2-amino-1-(4-(3-(2-methoxyphenyl)pyrazolo[1,5-a]pyrimidin-5-yl)piperazin-1-yl)-3-methylbutan-1-one], the IC50 on AAK1 [1] and on AAK1 [2] was at most 10 nM each time.

For the compound `CC(C)[C@H](N)C(=O)N1CCN(c2ccn3ncc(-c4cc(F)ccc4F)c3n2)CC1` [(S)-2-amino-1-(4-(3-(2,5-difluorophenyl)pyrazolo[1,5-a]pyrimidin-5-yl)piperazin-1-yl)-3-methylbutan-1-one], the IC50 against AAK1 [1] and against AAK1 [2] was at most 10 nM throughout.

On to `COc1ncccc1-c1cnn2ccc(N3CCN(C(=O)OC4CCOCC4)CC3)nc12` [tetrahydro-2H-pyran-4-yl 4-(3-(2-methoxypyridin-3-yl)pyrazolo[1,5-a]pyrimidin-5-yl)piperazine-1-carboxylate], for which the IC50 on AAK1 [1] is at most 10 nM; at AAK1 [2], at most 100 nM.

Turning to `COc1ncc(-c2cnn3ccc(N4CCN(C(=O)OC(C)C)CC4)nc23)c(OC)n1` [isopropyl 4-(3-(2,4-dimethoxypyrimidin-5-yl)pyrazolo[1,5-a]pyrimidin-5-yl)piperazine-1-carboxylate], the IC50 against AAK1 [1] is at most 10 nM; at AAK1 [2] it was at most 100 nM.

As for `CC(C)(C)[C@H](N)C(=O)N1CCN(c2ccn3ncc(-c4ccccc4)c3n2)CC1` [(S)-2-amino-3,3-dimethyl-1-(4-(3-phenylpyrazolo[1,5-a]pyrimidin-5-yl)piperazin-1-yl)butan-1-one], the half-inhibitory concentration (IC50) is at most 10 nM against AAK1 [1] and at most 100 nM against AAK1 [2].

With `COCC(C)OC(=O)N1CCN(c2ccn3ncc(-c4cccnc4OC)c3n2)CC1` (centres unmarked) [1-methoxypropan-2-yl 4-(3-(2-methoxypyridin-3-yl)pyrazolo[1,5-a]pyrimidin-5-yl)piperazine-1-carboxylate], the half-maximal inhibitory concentration (IC50) on AAK1 [1] and on AAK1 [2] was at most 10 nM throughout.

The term IC50 denotes the concentration at which inhibition is half-maximal. Low values mean inhibition by little substance, high ones a need for much substance.
